From patent US8093279B2, “Compound” (priority 2005, dated 2012)

Key:
Aromatase = molecular target: T1, Aromatase (Homo sapiens, UniProt P11511); test: Aromatase activity in JEG3 choriocarcinoma cells (Protocol 6); format: cell-based; conditions: for IC50: JEG3 cells
T1 construct: host or cells: JEG3 choriocarcinoma cells (intact monolayers)
T1 sequence (P11511 1-503): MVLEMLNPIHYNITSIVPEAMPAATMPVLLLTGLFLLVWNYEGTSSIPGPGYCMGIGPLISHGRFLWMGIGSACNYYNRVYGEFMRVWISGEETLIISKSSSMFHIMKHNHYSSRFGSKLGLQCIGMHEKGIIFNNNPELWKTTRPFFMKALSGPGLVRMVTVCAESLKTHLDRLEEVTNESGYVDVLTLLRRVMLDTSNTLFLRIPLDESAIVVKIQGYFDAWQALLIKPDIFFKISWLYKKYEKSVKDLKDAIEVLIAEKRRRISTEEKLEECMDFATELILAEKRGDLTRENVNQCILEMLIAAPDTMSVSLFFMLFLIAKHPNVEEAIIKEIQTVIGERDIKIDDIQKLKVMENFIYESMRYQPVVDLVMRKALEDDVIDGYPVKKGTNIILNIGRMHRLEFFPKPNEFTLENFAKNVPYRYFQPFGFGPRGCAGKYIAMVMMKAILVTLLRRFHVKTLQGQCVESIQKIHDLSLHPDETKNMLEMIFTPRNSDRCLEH
Protocol: Aromatase activity is measured in JEG3 choriocarcinoma cells, obtained from the ATCC.
During the aromatase reaction, ^3H2O is liberated which can be quantified using a liquid scintillation spectrometer (Beckman-Coulter, High Wycombe, Bucks. UK). […] The number of cell nuclei per flask is determined using a Coulter Counter after treating the cell monolayers with Z aponin.
Unpaired Student's t test was used to test the statistical significance of results.
A number of compounds were tested for aromatase and steroid sulphatase inhibition in accordance with the above Protocols 1 and 6.

melting point [°C] | JEG3-cells Aromatase, % at single concentration (Aromatase; @ 1 μM) [% @ 1 μM] | SMILES | IC50 (Aromatase) [µM]
 |  | Clc1ccc(-c2cccc(Cn3cncn3)c2)cc1 [compound 1386] | < 1
148 to 150 |  | N#Cc1ccc(Cn2cncn2)cc1-c1ccc(Cl)c(OS(N)(=O)=O)c1 [Compound 26, 5′-((1H-1,2,4-triazol-1-yl)methyl)-4-chloro-2′-cyanobiphenyl-3-yl sulfamate] | < 1
 |  | Oc1ccc(-c2ccc(F)c(Cn3cncn3)c2)cc1 [compound 1842] | < 1
 |  | N#Cc1ccc(-c2ccc(C#N)c(Cn3cncn3)c2)cc1 [compound 1510] | < 1
168 to 171 |  | N#Cc1cc(Cn2cncn2)ccc1-c1ccc(O)cc1 [Compound 47] | < 1
 |  | COc1ccc(-c2cccc(Cn3cncn3)c2)cc1Cl [compound 1512] | < 1
 |  | Clc1cccc(-c2cccc(Cn3cncn3)c2)c1 [compound 1384] | < 1
 |  | N#Cc1cccc(-c2ccc(C#N)c(Cn3cncn3)c2)c1 [compound 1505] | < 10
 |  | O=C(c1ccccc1)c1cccc(-c2cccc(Cn3cncn3)c2)c1 [compound 1511] | < 1
 |  | Fc1cccc(-c2cccc(Cn3cncn3)c2)c1 [compound 1524] | < 1
 |  | CC(C)(C#N)c1cc(Cn2cncn2)cc(-c2ccccc2)c1 [compound 1506] | < 1
 |  | N#Cc1ccc(-c2cccc(Cn3cncn3)c2)cc1 [compound 1459] | < 1
 |  | Clc1cc(-c2cccc(Cn3cncn3)c2)ccc1OCc1ccccc1 [compound 1502] | < 10
166 to 167 |  | N#Cc1cc(Cn2cncn2)cc(-c2ccc(OS(N)(=O)=O)cc2)c1 [Compound 38, 3′-((1H-1,2,4-triazol-1-yl)methyl)-5′-cyanobiphenyl-4-yl sulfamate] | < 1
 |  | NS(=O)(=O)Oc1ccc2cc(-c3cccc(Cn4cncn4)c3)ccc2c1 [compound 2052] | < 10
139 to 142 |  | N#Cc1ccc(Cn2cncn2)c(-c2ccc(OS(N)(=O)=O)c(Cl)c2)c1 [Compound 53, 2′-((1H-1,2,4-triazol-1-yl)methyl)-3-chloro-5′-cyanobiphenyl-4-yl sulfamate] | < 1
 |  | c1cc(Cn2cncn2)cc(-c2cccc3c2oc2ccccc23)c1 [compound 1839] | < 1
 |  | COc1ccc2cc(-c3cccc(Cn4cncn4)c3)ccc2c1 [compound 1981] | < 1
 |  | c1ccc(COc2ccc(-c3cccc(Cn4cncn4)c3)cc2)cc1 [compound 1362] | < 10
 |  | CN(C)S(=O)(=O)Oc1ccc(-c2cc(Cn3cncn3)ccc2C#N)cc1 [Compound 21, 5′-((1H-1,2,4-triazol-1-yl)methyl)-2′-cyanobiphenyl-4-yl dimethylsulfamate] | < 1

melting point [°C] | JEG3-cells Aromatase, % at single concentration (Aromatase; @ 1 μM) [% @ 1 μM] | SMILES | IC50 (Aromatase) [µM]
 |  | N#Cc1cccc(-c2cccc(Cn3cncn3)c2)c1 [compound 1458] | < 1
 |  | c1ccc(-c2ccc(Cn3cncn3)cc2)cc1 [compound 1975] | < 10
186 to 187 |  | N#Cc1cc(Cn2cncn2)cc(-c2ccc(O)cc2)c1 [Compound 37, 5-((1H-1,2,4-triazol-1-yl)methyl)-4′-hydroxybiphenyl-3-carbonitrile] | < 1
 |  | Fc1ccc(-c2ccccc2)cc1Cn1cncn1 [compound 1841] | < 1
195 to 197 |  | N#Cc1cc(Cn2cncn2)ccc1-c1ccc(O)c(Cl)c1 [Compound 49, 4-((1H-1,2,4-triazol-1-yl)methyl)-3′-chloro-4′-hydroxybiphenyl-2-carbonitrile] | < 1
 |  | N#Cc1ccc(-c2ccc(O)cc2)cc1Cn1cncn1 [compound 1520] | < 1
 |  | Fc1ccc(-c2cccc(Cn3cncn3)c2)cc1 [compound 1525] | < 1
 |  | N#Cc1cc(Cn2cncn2)ccc1-c1ccccc1 [Compound 46] | < 1
74 to 76 |  | CC(C)(C#N)c1cc(Cn2cncn2)cc(-c2ccc(OS(N)(=O)=O)cc2)c1 [Compound 56, 3′-((1H-1,2,4-triazol-1-yl)methyl)-5′-(2-cyanopropan-2-yl)biphenyl-4-yl sulfamate] | < 1
 |  | CC(C)(C#N)c1cc(Cn2cncn2)cc(-c2cccc(C(=O)c3ccccc3)c2)c1 [compound 1844] | < 1
 |  | Oc1ccc(-c2cccc(Cn3cncn3)c2)cc1Cl [compound 1519] | < 1
228 to 229 |  | N#Cc1ccc(Cn2cncn2)cc1-c1ccc(Cl)c(O)c1 [Compound 25] | < 1
 |  | Oc1cccc(-c2cccc(Cn3cncn3)c2)c1 [compound 1840] | < 1
 |  | c1ccc(Oc2ccccc2-c2ccc(Cn3cncn3)cc2)cc1 [compound 1835] | < 1
 |  | Oc1ccc(-c2cccc(Cn3cncn3)c2)cc1 [compound 1387] | < 1
 |  | N#Cc1ccc(-c2ccccc2)cc1Cn1cncn1 [compound 1456] | < 1
 |  | N#Cc1ccc(-c2cccc(O)c2)cc1Cn1cncn1 [compound 1843] | < 1
 |  | c1cc(Cn2cncn2)cc(-c2ccc3ccccc3c2)c1 [compound 1385] | < 1
 |  | c1ccc(-c2ccc(-c3cccc(Cn4cncn4)c3)cc2)cc1 [compound 1388] | < 10
 |  | N#Cc1ccc(-c2ccc3ccccc3c2)cc1Cn1cncn1 [compound 1504] | < 1

melting point [°C] | JEG3-cells Aromatase, % at single concentration (Aromatase; @ 1 μM) [% @ 1 μM] | SMILES | IC50 (Aromatase) [µM]
243 to 245 |  | N#Cc1ccc(Cn2cncn2)c(-c2ccc(O)c(Cl)c2)c1 [Compound 52, 6-((1H-1,2,4-triazol-1-yl)methyl)-3′-chloro-4′-hydroxybiphenyl-3-carbonitrile] | < 1
 |  | CC(C)(C#N)c1cc(Cn2cncn2)cc(-c2cccc(C#N)c2)c1 [compound 1509] | < 1
 |  | CC(C)(C#N)c1cc(Cn2cncn2)cc(-c2cccc(Cl)c2)c1 [compound 1507] | < 1
 |  | c1ccc(-c2cccc(Cn3cncn3)c2)cc1 [compound 1361] | < 1
154 to 155 |  | N#Cc1ccc(-c2cc(C#N)cc(Cn3cncn3)c2)cc1 [Compound 36, 5-((1H-1,2,4-triazol-1-yl)methyl)biphenyl-3,4′-dicarbonitrile] | < 1
137 to 138 | 63.4 ± 2.1 | N#Cc1ccc(-c2cccc(OS(N)(=O)=O)c2)cc1Cn1cncn1 [Compound 29, 3′-((1H-1,2,4-triazol-1-yl)methyl)-4′-cyanobiphenyl-3-yl sulfamate] | 
208 to 209 |  | N#Cc1cc(Cn2cncn2)cc(-c2ccc(O)c(Cl)c2)c1 [Compound 39] | < 1
 |  | COc1ccc(-c2cccc(Cn3cncn3)c2)cc1 [compound 1452] | < 1
134 to 135 |  | N#Cc1cc(Cn2cncn2)cc(-c2ccc(F)cc2)c1 [Compound 35, 5-((1H-1,2,4-triazol-1-yl)methyl)-4′-fluorobiphenyl-3-carbonitrile] | < 1
 |  | CC(=O)c1cccc(-c2cccc(Cn3cncn3)c2)c1 [compound 1838] | < 1
109 to 110 |  | N#Cc1cc(Cn2cncn2)cc(-c2ccccc2)c1 [Compound 34, 5-((1H-1,2,4-triazol-1-yl)methyl)biphenyl-3-carbonitrile] | < 1
119 to 120 |  | CN(C)S(=O)(=O)Oc1ccc(-c2cc(Cn3cncn3)ccc2C#N)cc1Cl [Compound 24, 5′-((1H-1,2,4-triazol-1-yl)methyl)-3-chloro-2′-cyanobiphenyl-4-yl dimethylsulfamate] | < 1
 |  | CC(C)(C#N)c1cc(Cn2cncn2)cc(-c2ccc(O)cc2)c1 [compound 1521] | < 1
 |  | N#Cc1ccc(-c2ccc(OCc3ccccc3)cc2)cc1Cn1cncn1 [compound 1457] | < 10
 |  | N#Cc1ccc(Cn2cncn2)cc1-c1ccccc1 [compound 1978] | < 1
 |  | N#Cc1ccc(-c2cccc(Cl)c2)cc1Cn1cncn1 [compound 1503] | < 1
 |  | CC(C)(C#N)c1cc(Cn2cncn2)cc(-c2ccc3ccccc3c2)c1 [compound 1508] | < 1
 |  | N#Cc1ccc(Cn2cncn2)c(-c2ccccc2)c1 [Compound 51] | < 1
